The results in this text go back to the supplement of paper PMC10307832.

What all share (experiment): relative viability (nuclei count vs DMSO), 5 days (fraction); higher = more cells survive
Compound in assay [1]: CC1=NC=CC(=C1)C2=CC=C(C=C2)CC(=O)NC3=CC=C(C=C3)C4=CN=CC=C4 [Wnt-C59] + CC(C)C[C@H](NC(=O)[C@H](Cc1ccccc1)NC(=O)c1cnccn1)B(O)O [Bortezomib] (partner 0.002 µM)
In outline: (§1)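 Relative viability is defined as nuclei in treated wells over nuclei in vehicle wells. Duplicate plates were run and medians reported. Lung cancer cell lines in 1536-well plates were dosed by pin tool one day after seeding, with one drug or with a fixed anchor-drug dose plus five library-drug doses (not always all listed) in √10 steps, and nuclei were counted after 5 days.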

Compound in assay [2]: CC1=NC=CC(=C1)C2=CC=C(C=C2)CC(=O)NC3=CC=C(C=C3)C4=CN=CC=C4 [Wnt-C59] + O=C(c1cc(Cc2n[nH]c(=O)c3ccccc23)ccc1F)N1CCN(C(=O)C2CC2)CC1 [Olaparib] (partner 8 µM)
In outline: as §1

Compound in assay [3]: CS(=O)(=O)CCNCc1ccc(-c2ccc3ncnc(Nc4ccc(OCc5cccc(F)c5)c(Cl)c4)c3c2)o1 [Lapatinib] + Cc1nc(NC(=O)N2CCC[C@H]2C(N)=O)sc1-c1ccnc(C(C)(C)C(F)(F)F)c1 [Alpelisib] (partner 2 µM)
In outline:
as §1

Compound in assay [4]: CS(=O)(=O)CCNCc1ccc(-c2ccc3ncnc(Nc4ccc(OCc5cccc(F)c5)c(Cl)c4)c3c2)o1 [Lapatinib] + Nc1nc2[nH]cc(CCc3ccc(C(=O)N[C@@H](CCC(=O)O)C(=O)O)cc3)c2c(=O)[nH]1 [Pemetrexed] (partner 0.2 µM)
In outline: as §1

Consider UMC-11, for which the relative viability in assay [1] (first compound 0.001 µM) was found to be 0.715; in assay [1] (first compound 0.01 µM) it was 0.616; in assay [1] (first compound 0.03162 µM), 0.75; in assay [1] (first compound 0.1 µM), 0.728; in assay [2] (first compound 0.001 µM) it was 0.793; in assay [2] (first compound 0.01 µM), 0.378. Besides, the relative viability is 0.479 in assay [2] (first compound 0.03162 µM); 0.415 in assay [2] (first compound 0.1 µM); 0.861 in assay [3] (first compound 0.02 µM); 0.933 in assay [3] (first compound 0.06325 µM); 0.986 in assay [3] (first compound 0.2 µM); 0.887 in assay [3] (first compound 0.6325 µM). The relative viability stood at 1.09 in assay [3] (first compound 2 µM); 0.803 in assay [4] (first compound 0.02 µM); 0.7 in assay [4] (first compound 0.06325 µM); 0.781 in assay [4] (first compound 0.2 µM); 0.795 in assay [4] (first compound 0.6325 µM); 0.753 in assay [4] (first compound 2 µM).
